pIC50: −log10 of the molar value. Values after ≈ are worked out from the molar mass of the structure shown. Where two headings read alike, the source gives them in different places.
How the values were obtained:
[1] = Solubility in water; format: physicochemical
Text: The water solubility of preferred compound 86 and the compound of Example 49 of WO 02/967654 A2 have been compared.

[2] = biological target: T1, CDK7 (Homo sapiens, UniProt P50613); assay: Target selectivity profile (DiscoverX KinomeScan) CDK7; format: binding
T1 construct: purchased DiscoverX
Text: (§1) 3. Target Selectivity Profile (DiscoverX KinomeScan)
(§2) According to an analysis of kinase inhibitory selectivity carried out in accordance with Karaman M W et al., Nat Biotechnol. 2008 January; 26(1):127-32. doi: 10.1038/nbt1358.

[3] = biological target: T2, CDK13 (Homo sapiens, UniProt Q14004); assay: Target selectivity profile (DiscoverX KinomeScan) CDK13; format: binding
T2 construct: purchased DiscoverX
Text: as §1, §2

[4] = biological target: T3, CDK16 (Homo sapiens, UniProt Q00536); assay: Target selectivity profile (DiscoverX KinomeScan) CDK16; format: binding
T3 construct: purchased DiscoverX
Text: as §1, §2

[5] = biological target: human ether-a-go-go-related gene (hERG)-encoded K+ channel (Homo sapiens, UniProt Q12809); assay: Medium-throughput electrophysiology based hERG assay; format: cell-based
Text: In a medium-throughput electrophysiology based hERG assay carried out in accordance with Bridgland-Taylor M H et al., J Pharmacol Toxicol Methods. 2006 September-October; 54(2):189-99. Epub 2006 Mar. 6.

[6] = tested on: most CYP enzymes; assay: Drug-drug interactions: CYP inhibition; format: in vitro ADME
Text: In assays carried out in accordance with the “Guideline on the investigation of drug interactions”, CPMP/EWP/560/95/Rev. 1 Corr. 2, European Medicines Agency, Committee for Human Medicinal Products (CHMP) and “Guidance for Industry, Drug Interaction Studies—Study Design, Data Analysis, Implications for Dosing, and Labeling Recommendations”, U.S. Department of Health and Human Services.

[7] = tested on: BXPC3 (pancreas); assay: In vitro proliferation screening (Sulforhodamin B) BXPC3; format: cell-based, human; conditions: BXPC3, 72 h
Text: (§3) In order to evaluate the antitumor activity of the compounds of the present invention, in particular compound 86, in solid tumors, an in vitro proliferation screening in a panel of 10 different human cancer cell lines derived from solid tumors (see Table 5, below) as a model system.
(§4) Six 10-fold dilutions of compound 86 have been prepared in DMSO, from 5×10^−9 M to 5×10^−4. Single data points have been tested for each concentration. The final concentration of DMSO was 0.1%. The duration of the treatment was 72 hours. The growth inhibition was measured by using Sulforhodamin B, a protein-staining assay in accordance with Vichai V et. al. Nat. Protoc. 2006; 1(3):1112-6. Activity of the agents was determined by evaluating the following parameters: IC50, GI50, IC10, GI10, TGI, LC50, IC90 and GI90 (if these values could be calculated).

[8] = tested on: DU145 (prostate); assay: In vitro proliferation screening (Sulforhodamin B) DU145; format: cell-based; conditions: Homo sapiens, DU-145; DU145, 72 h; unit M
Text: as §3, §4

[9] = tested on: MDAMB468 (breast); assay: In vitro proliferation screening (Sulforhodamin B) MDAMB468; format: cell-based; conditions: Homo sapiens, MDA-MB-468; MDAMB468, 72 h; unit M
Text: as §3, §4

[10] = tested on: NCIH82 (lung); assay: In vitro proliferation screening (Sulforhodamin B) NCIH82; format: cell-based; conditions: Homo sapiens, NCI-H82; NCIH82, 72 h; unit M
Text: as §3, §4

[11] = tested on: SKNAS (brain); assay: In vitro proliferation screening (Sulforhodamin B) SKNAS; format: cell-based; conditions: Homo sapiens, SK-N-AS, 72 h, unit M
Text: as §3, §4

[12] = tested on: UO31 (kidney); assay: In vitro proliferation screening (Sulforhodamin B) UO31; format: cell-based, human; conditions: UO31, 72 h
Text: as §3, §4

[13] = tested on: HS-5 bone marrow stroma cells (control); assay: Cell cycle analysis (propidium iodide FACS) HS-5; format: cell-based; conditions: HS-5 control cells, 100 nM, 12 and 24 h
Text: (§5) In order to investigate the mode of action (MOA) related to the antitumor activity of the compounds of the present invention (in particular compound 86) in solid tumors and multiple myeloma, two experimental strategies were used to confirm the postulated MOA: 1) monitoring of apoptosis induction and 2) cell cycle analysis upon treatment with compound 86. Three cancer cell lines (LP-1, (multiple myeloma cells, DSMZ ACC 41), A375 (melanoma cells), and HeLa (cervix carcinoma cells)) as well as control cells (HS-5 bone marrow stroma cells, ATCC CRL-11882) were used to obtain mechanistic insight into the antitumor activity of compound 86.
Measuring of DNA content in cells is a well-established method for monitoring cell proliferation, cell cycle, fragmentation of nuclei (apoptosis) and DNA ploidy. Proliferating cells progress through various phases of the cell cycle (G0, G1, S, G2, and M phase). At different stages of the cell cycle and life cycle, cell nuclei contain different amounts of DNA. The DNA content in cell nuclei was analyzed by propidium iodide (PI) staining and FACS analysis after 12 and 24 h of treatment with 100 nM of compound 86 in accordance with the method of Desai Brijal M. et. al. PLOS Vol. 8; Issue 3; p. 1-11, 2013.

[14] = tested on: LP-1 multiple myeloma cells; assay: PARP cleavage Western blot LP1; format: cell-based; conditions: LP1, 24 h, 100 nM, FIG. 1B legend 0.08 μM
Text: as §5
(§6) Annexin V staining and Poly(ADP-ribose)-Polymerase 1 (PARP) protein cleavage was analyzed to identify a pro-apoptotic effect of compound 86 on tumor cells in accordance with the method of Koopman G, et. al. Blood 1994; 1; 84(5):1415-20. Annexin V allows the identification of cell surface changes that occur early during the apoptotic process by in situ detection, which is ideal for the analysis with adherent cells. Cleavage of PARP-1 by caspases is considered to be a hallmark of apoptosis and was therefore applied to monitor apoptosis induction after 24 h of treatment with 100 nM of compound 86.

[15] = tested on: A375 melanoma cells; assay: PARP cleavage Western blot A375; format: cell-based; conditions: A375, 24 h, 100 nM, FIG. 1B legend 0.08 μM
Text: as §5, §6

[16] = tested on: HeLa cervix carcinoma cells; assay: PARP cleavage Western blot HeLa; format: cell-based; conditions: 24 h, 100 nM, FIG. 1B legend 0.08 μM
Text: as §5, §6

[17] = tested on: HS-5 bone marrow stroma cells (control); assay: Annexin V/PI staining HS-5; format: cell-based; conditions: HS-5 control cells, 0.1 μM, 12 h and 24 h
Text: as §5, §6

human ether-a-go-go-related gene (hERG)-encoded K+ channel, sequence (Q12809 whole entry): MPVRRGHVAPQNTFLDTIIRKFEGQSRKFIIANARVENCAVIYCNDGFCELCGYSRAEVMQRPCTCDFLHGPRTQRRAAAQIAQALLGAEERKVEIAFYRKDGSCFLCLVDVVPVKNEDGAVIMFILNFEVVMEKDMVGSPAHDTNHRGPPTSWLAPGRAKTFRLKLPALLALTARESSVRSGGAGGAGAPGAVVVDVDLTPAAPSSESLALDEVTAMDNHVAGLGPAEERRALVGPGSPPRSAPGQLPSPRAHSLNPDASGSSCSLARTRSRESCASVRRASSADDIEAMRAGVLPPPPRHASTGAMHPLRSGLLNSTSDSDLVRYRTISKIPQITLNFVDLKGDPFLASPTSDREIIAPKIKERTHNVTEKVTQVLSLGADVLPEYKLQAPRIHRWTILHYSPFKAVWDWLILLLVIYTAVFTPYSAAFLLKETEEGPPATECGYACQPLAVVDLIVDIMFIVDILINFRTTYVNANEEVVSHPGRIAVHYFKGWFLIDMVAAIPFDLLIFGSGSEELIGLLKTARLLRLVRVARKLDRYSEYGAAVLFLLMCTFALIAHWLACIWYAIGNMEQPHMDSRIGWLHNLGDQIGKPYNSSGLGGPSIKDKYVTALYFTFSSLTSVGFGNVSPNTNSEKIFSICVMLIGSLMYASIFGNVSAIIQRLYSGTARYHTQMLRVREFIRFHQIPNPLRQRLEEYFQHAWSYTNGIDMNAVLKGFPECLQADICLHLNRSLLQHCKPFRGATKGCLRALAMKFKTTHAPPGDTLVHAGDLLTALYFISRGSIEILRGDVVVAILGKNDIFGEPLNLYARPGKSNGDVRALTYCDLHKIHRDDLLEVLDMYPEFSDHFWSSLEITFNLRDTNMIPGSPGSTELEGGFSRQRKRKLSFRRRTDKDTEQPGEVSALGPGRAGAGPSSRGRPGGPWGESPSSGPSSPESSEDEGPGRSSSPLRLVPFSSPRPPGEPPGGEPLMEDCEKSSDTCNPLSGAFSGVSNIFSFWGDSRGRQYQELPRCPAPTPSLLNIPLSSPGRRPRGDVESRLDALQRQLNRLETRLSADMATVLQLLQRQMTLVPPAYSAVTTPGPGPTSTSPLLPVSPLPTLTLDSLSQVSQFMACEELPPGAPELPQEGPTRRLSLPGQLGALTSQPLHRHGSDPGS
T1 sequence (P50613 whole entry): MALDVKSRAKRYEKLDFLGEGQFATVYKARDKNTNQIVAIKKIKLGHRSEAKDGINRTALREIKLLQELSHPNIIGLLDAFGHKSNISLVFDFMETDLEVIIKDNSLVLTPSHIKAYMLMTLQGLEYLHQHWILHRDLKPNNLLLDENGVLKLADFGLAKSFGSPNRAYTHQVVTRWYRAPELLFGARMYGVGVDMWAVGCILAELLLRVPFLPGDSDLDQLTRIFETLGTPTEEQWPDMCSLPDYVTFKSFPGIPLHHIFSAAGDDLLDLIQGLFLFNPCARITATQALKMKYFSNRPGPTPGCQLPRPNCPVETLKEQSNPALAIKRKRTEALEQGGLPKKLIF
T2 sequence (Q14004 whole entry): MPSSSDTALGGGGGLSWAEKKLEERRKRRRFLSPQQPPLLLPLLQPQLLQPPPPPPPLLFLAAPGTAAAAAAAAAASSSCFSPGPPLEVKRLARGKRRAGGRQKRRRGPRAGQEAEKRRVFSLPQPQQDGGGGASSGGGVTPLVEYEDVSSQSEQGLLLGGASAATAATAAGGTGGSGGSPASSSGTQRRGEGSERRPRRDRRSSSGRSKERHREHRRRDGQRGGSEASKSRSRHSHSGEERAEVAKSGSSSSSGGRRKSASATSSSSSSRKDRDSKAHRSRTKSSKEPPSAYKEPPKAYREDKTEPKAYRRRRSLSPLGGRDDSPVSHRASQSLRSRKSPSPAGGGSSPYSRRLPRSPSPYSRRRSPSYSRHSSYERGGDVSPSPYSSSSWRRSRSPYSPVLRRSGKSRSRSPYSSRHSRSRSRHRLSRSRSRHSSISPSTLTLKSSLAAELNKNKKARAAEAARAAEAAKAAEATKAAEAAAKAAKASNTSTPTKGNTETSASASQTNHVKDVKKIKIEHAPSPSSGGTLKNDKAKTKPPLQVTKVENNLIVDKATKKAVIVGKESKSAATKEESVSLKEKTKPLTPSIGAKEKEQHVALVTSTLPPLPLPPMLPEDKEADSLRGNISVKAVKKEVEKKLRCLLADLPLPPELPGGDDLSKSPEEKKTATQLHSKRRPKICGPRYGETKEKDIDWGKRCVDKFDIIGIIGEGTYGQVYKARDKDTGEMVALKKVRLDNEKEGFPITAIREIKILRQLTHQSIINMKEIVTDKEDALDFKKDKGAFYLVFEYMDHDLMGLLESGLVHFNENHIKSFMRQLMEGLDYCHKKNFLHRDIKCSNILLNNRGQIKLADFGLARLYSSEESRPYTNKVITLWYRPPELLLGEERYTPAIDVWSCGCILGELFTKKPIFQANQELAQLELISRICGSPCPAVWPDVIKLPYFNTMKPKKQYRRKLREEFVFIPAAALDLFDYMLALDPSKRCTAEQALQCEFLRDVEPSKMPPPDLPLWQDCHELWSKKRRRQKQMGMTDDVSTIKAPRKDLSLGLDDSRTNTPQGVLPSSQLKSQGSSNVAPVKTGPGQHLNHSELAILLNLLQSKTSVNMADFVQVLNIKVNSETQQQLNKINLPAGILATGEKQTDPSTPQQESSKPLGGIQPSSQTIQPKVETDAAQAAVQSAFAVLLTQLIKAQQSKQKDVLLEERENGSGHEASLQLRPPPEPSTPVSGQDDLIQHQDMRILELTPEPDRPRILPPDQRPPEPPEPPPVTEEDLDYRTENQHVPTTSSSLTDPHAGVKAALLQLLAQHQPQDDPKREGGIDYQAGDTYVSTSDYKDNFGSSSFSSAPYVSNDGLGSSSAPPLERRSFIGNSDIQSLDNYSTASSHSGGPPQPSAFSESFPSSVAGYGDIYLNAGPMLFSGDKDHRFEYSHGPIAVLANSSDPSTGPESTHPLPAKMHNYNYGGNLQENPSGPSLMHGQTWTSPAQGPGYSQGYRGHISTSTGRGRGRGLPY
T3 sequence (Q00536 whole entry): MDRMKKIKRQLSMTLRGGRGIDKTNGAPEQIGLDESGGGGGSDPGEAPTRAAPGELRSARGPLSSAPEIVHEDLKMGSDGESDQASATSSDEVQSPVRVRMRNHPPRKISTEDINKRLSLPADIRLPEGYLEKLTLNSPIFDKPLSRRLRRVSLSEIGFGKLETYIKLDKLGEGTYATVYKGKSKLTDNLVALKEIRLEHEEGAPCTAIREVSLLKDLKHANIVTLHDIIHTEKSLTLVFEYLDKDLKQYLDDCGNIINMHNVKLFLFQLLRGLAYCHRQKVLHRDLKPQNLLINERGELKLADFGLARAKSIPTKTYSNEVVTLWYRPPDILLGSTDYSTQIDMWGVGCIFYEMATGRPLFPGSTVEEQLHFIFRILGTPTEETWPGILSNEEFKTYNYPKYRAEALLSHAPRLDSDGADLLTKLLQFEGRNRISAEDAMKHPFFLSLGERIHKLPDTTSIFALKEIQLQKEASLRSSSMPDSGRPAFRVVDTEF

solubility ([1]; aqueous buffer, pH 2.0, read-out: Solubility in water at pH 2.0): 129 µM (≈ 80.2 µg/mL) | solubility ([1]; pH 7.4, aqueous buffer, read-out: Solubility in water at pH 7.4): 105 µM (≈ 65.3 µg/mL) | kinase inhibitory selectivity: CDK7 [2]: active as inhibitors | kinase inhibitory selectivity: CDK13 [3]: active as inhibitors | kinase inhibitory selectivity: CDK16 [4]: active as inhibitors | inhibitory activity of most CYP enzymes [6]: only weak inhibitory activity | GI50 ([7]; Homo sapiens, BXPC-3, unit M): 36.3 nM | pIC50 ([7]; Homo sapiens, BXPC-3, unit M): 7.38 | GI50 [8]: 32.4 nM | pIC50 [8]: 7.43 | GI50 [9]: 38.9 nM | pIC50 [9]: 7.37 | GI50 [11]: 41.2 nM | pIC50 [11]: 7.13
SMILES: CCN(CC)CC(=O)Nc1ccc(Cc2nc3c(c(N(C)C)nn3-c3c(Cl)cc(S(N)(=O)=O)cc3Cl)c(=O)[nH]2)cc1 [Compound 86, N-{4-[1-(2,6-Dichloro-4-sulfamoyl-phenyl)-3-dimethylamino-4-oxo-4,5-dihydro-1H-pyrazolo[3,4-d]pyrimidin-6-ylmethyl]-phenyl}-2-diethylamino-acetamide]
inhibitory activity on hERG K+ channel [5]: did not display any inhibitory activity | growth inhibitory response in words [7]: growth inhibition in the middle nanomolar range | GI50 [10]: 16.5 nM | pIC50 [10]: 7.67 | GI50 ([12]; Homo sapiens, UO-31, unit M): 339 nM | pIC50 ([12]; Homo sapiens, UO-31, unit M): 6.44 | growth inhibitory response in words [12]: responded rather weakly in the micromolar range | cell cycle profile (DNA content) [13]: remained unchanged | PARP cleavage [14]: specific induction of PARP cleavage | PARP cleavage ([14]; listed as Otviciclib): induction of PARP cleavage | PARP cleavage [15]: specific induction of PARP cleavage | PARP cleavage ([15]; listed as Otviciclib): induction of PARP cleavage | PARP cleavage [16]: specific induction of PARP cleavage | PARP cleavage ([16]; listed as Otviciclib): induction of PARP cleavage | induction of apoptosis (Annexin V/PI staining) [17]: did not respond

— US11091490B2, “3-amino-1,5-dihydro-pyrazolo[3,4-d]pyrimidin-4-ones as cyclin dependent kinase inhibitors” (Oncotyrol Center for Personalized Cancer Medicine GMBH, priority 2016, dated 2021)
